This is an account of results in publication PMC4775085 (ACS chemical neuroscience, 2015).

For one experiment, the system named is mutant HSPB1 DRG neurons. The experiment is described as follows: Mitochondrial axonal transport in mutant HSPB1 DRG neurons. In kind it is cell-based, mouse. The following applies: DRG neurons from transgenic mutant HSPB1 mice, 100 nM overnight.
The target of the next experiment is T1, HDAC7 (Homo sapiens, UniProt Q8WUI4).
T1 sequence (Q8WUI4 1-952): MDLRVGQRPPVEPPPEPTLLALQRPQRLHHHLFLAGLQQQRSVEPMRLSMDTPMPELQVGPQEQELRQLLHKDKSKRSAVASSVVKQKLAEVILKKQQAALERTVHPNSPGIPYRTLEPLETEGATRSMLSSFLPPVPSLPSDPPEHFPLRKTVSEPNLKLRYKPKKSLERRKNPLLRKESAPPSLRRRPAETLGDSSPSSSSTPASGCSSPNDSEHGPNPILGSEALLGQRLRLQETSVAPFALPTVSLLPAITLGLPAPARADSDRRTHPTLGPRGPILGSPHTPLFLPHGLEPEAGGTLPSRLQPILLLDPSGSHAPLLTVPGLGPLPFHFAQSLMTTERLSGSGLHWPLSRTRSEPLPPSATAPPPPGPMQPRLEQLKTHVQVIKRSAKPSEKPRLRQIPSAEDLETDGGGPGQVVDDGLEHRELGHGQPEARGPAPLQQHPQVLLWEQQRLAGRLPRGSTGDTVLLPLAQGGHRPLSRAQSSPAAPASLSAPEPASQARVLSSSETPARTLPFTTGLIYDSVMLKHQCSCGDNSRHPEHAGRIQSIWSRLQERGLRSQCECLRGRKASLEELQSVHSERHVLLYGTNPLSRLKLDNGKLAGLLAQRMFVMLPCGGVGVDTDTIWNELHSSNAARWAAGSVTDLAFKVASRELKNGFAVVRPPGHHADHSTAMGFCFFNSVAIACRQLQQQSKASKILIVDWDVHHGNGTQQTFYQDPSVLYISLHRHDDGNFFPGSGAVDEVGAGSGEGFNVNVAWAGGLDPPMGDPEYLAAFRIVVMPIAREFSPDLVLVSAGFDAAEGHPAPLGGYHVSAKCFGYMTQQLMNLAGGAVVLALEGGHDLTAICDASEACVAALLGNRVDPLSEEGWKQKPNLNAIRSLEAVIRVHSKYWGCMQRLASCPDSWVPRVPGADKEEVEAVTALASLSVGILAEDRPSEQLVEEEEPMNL
The experiment is described as follows: HDAC7 enzymatic inhibition assay.

The next experiment concerns the target T2, HDAC10 (Homo sapiens, UniProt Q969S8).
T2 sequence (Q969S8 1-669): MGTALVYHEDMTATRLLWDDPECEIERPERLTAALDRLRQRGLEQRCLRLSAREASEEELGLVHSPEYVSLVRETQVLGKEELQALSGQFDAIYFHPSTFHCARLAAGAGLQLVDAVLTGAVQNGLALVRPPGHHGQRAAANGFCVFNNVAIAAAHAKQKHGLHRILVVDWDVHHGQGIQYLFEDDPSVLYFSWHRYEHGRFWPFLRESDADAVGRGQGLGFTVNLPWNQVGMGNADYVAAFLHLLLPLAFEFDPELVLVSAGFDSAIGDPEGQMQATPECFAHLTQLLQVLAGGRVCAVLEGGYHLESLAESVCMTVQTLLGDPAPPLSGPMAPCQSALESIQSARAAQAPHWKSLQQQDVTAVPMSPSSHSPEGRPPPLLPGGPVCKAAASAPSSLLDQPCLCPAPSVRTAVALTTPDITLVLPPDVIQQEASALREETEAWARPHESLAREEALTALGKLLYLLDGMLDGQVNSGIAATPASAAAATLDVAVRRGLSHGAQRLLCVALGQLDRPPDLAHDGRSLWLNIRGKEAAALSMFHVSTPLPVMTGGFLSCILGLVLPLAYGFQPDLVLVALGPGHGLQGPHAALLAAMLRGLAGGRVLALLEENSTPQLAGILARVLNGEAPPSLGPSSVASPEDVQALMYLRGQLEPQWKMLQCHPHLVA
The experiment is described as follows: HDAC10 enzymatic inhibition assay.

The next experiment addresses HDAC9 (Homo sapiens, UniProt Q9UKV0). The experiment is described as follows: HDAC9 enzymatic inhibition assay.
For experiment [1], the system named is acetylated histone 3 in N2a cells. The experiment is described as follows: Acetylated histone 3/histone 4 ratio in N2a cells by Western blot. The class given is cell-based, mouse. The following applies: overnight, vehicle = 1.00.
In a further experiment the target is HDAC3 (Homo sapiens, UniProt O15379). The experiment is described as follows: HDAC3 enzymatic inhibition assay.
Another experiment deals with HDAC5 (Homo sapiens, UniProt Q9UQL6). The experiment is described as follows: HDAC5 enzymatic inhibition assay.
Another experiment addresses HDAC4 (Homo sapiens, UniProt P56524). The experiment is described as follows: HDAC4 enzymatic inhibition assay.
In the next experiment the target is T3, HDAC8 (Homo sapiens, UniProt Q9BY41).
T3 sequence (Q9BY41 1-377): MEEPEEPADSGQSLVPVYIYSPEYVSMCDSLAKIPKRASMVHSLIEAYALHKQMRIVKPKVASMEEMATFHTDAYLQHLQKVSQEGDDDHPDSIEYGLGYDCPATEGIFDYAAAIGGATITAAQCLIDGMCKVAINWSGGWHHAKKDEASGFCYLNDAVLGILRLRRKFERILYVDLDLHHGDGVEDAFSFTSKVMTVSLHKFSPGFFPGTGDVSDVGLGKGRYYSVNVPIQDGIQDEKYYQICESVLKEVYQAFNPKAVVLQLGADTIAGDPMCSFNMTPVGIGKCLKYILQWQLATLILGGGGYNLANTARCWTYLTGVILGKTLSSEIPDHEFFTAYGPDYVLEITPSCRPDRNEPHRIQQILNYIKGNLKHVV
The experiment is described as follows: HDAC8 enzymatic inhibition assay.

The next experiment has as its target T4, HDAC11 (Homo sapiens, UniProt Q96DB2).
T4 sequence (Q96DB2 1-347): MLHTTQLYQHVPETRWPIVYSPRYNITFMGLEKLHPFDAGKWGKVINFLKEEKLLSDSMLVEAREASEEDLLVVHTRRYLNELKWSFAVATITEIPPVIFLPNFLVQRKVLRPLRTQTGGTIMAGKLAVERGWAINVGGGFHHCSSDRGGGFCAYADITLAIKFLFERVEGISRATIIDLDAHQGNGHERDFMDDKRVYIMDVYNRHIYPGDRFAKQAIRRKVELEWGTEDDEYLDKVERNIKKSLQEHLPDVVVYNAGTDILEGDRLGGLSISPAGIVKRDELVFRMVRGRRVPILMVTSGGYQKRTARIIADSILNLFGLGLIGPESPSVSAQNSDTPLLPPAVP
The experiment is described as follows: HDAC11 enzymatic inhibition assay.

In a further experiment the target is HDAC1 (Homo sapiens, UniProt Q13547). The experiment is described as follows: HDAC1 enzymatic inhibition assay. The class given is biochemical. The following applies: HDAC1 IC50, singlet 10-dose IC50 mode, 3-fold serial dilution starting at 100 μM.

pIC50: −log10 of the molar value.

Sequence of HDAC5 (Q9UQL6 whole entry): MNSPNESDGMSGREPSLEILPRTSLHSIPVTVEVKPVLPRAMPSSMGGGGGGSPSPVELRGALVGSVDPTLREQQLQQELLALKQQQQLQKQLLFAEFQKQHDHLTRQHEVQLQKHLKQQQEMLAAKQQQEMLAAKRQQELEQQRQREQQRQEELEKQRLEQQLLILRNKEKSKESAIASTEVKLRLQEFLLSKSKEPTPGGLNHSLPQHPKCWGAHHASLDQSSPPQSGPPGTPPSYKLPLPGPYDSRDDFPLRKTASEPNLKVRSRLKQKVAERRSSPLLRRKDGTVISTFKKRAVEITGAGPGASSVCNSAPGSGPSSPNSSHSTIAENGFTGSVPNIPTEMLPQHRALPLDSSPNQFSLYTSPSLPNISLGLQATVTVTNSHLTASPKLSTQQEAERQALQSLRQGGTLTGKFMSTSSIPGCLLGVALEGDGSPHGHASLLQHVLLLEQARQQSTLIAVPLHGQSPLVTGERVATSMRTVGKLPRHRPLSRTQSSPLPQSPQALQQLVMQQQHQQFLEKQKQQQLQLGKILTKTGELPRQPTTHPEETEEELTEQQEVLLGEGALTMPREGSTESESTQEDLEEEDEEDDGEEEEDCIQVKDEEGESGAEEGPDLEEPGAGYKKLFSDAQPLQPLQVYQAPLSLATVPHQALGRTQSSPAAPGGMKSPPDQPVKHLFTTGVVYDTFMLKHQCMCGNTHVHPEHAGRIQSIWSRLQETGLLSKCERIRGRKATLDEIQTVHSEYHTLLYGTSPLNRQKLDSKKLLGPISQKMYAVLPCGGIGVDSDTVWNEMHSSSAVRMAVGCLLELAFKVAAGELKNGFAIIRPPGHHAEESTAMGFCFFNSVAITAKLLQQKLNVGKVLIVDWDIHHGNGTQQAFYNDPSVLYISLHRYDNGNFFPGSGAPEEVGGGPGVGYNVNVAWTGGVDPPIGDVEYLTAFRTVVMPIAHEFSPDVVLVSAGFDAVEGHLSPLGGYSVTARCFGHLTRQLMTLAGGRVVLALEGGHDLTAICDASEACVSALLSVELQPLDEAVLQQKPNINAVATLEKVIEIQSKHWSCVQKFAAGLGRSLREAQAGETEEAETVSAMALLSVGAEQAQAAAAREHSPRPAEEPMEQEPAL
Sequence of HDAC4 (P56524 whole entry): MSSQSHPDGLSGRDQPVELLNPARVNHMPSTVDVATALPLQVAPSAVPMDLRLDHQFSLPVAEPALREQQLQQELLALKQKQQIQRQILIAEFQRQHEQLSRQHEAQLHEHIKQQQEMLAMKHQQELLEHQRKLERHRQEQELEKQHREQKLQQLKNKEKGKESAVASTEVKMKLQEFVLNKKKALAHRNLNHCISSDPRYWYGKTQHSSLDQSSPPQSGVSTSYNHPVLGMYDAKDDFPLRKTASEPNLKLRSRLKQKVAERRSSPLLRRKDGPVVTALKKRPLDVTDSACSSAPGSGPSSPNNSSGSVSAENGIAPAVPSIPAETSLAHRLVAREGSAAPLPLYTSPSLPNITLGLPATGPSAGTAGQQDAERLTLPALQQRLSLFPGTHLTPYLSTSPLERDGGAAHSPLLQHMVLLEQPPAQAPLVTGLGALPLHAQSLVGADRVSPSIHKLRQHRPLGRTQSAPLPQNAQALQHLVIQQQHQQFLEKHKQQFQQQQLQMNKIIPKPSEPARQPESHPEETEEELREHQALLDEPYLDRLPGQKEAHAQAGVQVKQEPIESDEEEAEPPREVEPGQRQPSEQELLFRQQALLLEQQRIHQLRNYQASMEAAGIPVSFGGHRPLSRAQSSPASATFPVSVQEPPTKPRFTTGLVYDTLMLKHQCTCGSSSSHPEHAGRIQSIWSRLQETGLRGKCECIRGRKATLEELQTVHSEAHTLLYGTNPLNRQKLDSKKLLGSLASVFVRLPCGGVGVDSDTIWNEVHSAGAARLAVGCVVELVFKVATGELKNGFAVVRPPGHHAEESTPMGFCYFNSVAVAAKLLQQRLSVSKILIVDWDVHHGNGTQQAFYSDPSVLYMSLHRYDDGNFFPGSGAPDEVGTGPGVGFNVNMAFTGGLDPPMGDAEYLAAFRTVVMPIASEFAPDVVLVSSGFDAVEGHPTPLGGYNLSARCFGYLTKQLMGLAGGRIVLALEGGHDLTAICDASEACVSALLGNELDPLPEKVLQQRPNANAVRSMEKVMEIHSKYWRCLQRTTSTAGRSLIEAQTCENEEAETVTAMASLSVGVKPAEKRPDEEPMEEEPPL
Sequence of HDAC1 (Q13547 whole entry): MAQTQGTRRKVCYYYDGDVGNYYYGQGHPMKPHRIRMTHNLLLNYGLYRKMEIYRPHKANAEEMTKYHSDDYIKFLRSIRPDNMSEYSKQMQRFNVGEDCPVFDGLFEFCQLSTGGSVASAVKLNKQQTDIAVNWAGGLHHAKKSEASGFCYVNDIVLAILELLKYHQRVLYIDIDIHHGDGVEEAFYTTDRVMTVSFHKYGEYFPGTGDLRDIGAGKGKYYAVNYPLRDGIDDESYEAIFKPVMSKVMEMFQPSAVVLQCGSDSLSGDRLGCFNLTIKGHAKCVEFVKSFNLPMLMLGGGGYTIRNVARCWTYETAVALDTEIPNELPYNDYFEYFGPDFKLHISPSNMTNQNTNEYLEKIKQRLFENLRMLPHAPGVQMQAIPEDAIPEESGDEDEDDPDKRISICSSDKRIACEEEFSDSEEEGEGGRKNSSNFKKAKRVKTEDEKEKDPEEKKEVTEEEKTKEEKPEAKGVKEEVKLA
Sequence of HDAC3 (O15379 whole entry): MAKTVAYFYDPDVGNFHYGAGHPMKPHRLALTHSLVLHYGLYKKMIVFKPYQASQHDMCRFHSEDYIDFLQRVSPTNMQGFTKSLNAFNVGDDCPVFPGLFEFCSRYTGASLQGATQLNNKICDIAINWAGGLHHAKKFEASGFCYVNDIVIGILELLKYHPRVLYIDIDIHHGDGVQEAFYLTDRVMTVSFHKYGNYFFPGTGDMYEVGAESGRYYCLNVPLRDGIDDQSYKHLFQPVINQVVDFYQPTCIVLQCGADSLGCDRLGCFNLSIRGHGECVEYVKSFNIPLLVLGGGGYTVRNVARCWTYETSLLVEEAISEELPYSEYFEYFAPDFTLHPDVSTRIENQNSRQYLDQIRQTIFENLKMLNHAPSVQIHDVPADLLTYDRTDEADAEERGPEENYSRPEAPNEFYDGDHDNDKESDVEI
Sequence of HDAC3 (Q9Y618 395-489 partner limits assumed): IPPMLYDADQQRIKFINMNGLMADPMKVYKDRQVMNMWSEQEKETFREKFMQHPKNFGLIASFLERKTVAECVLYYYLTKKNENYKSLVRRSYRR
Sequence of HDAC9 (Q9UKV0 whole entry): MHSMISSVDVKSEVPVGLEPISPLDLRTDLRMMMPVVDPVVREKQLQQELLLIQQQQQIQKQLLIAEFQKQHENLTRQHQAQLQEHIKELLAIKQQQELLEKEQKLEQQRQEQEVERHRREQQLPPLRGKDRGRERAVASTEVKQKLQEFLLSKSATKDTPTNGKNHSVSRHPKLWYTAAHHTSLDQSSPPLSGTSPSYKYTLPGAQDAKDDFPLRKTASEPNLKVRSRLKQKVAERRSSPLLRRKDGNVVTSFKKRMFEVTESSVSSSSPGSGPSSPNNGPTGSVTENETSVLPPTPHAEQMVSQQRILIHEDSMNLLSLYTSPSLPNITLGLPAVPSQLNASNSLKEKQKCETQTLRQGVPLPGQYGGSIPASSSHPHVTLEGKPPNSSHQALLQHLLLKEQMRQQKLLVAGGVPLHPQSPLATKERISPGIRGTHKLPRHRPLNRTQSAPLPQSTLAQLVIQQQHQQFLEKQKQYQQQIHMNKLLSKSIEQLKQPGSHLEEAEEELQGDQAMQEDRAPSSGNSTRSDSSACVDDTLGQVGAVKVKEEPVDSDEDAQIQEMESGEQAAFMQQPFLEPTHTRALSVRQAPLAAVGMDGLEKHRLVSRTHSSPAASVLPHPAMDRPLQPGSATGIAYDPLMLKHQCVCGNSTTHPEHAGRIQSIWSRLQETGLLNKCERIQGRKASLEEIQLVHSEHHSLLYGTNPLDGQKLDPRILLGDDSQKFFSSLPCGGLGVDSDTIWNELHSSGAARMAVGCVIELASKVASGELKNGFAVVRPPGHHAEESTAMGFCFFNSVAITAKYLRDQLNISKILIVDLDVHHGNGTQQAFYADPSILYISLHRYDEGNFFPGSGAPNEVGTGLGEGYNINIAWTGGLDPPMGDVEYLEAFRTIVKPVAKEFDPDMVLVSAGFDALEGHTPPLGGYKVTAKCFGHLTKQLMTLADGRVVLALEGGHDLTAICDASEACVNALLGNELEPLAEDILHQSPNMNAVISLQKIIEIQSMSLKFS

Take `Cc1nc2ccc(F)cc2n1Cc1ccc(C(=O)NO)cc1` [30a, 4-[(6-Fluoro-2-methyl-1-benzimidazolyl)methyl]-N-hydroxybenzamide]: the “mitochondrial axonal transport (number of moving mitochondria per 100 μm of neurite)” value in the experiment on mutant HSPB1 DRG neurons is given as “able to restore the movement of mitochondria”. Also, the pIC50 against HDAC7 is 6.68; at HDAC10, 4.93; against HDAC9 it was 6.33; on HDAC3 it was 5.00; against HDAC5, 6.40; at HDAC4, 5.84. For the same molecule, the values for the pIC50 against HDAC8, against HDAC11 and at HDAC1 were 6.43, 5.13 and 5.36, respectively. For the same molecule, in experiment [1], the “ratio acetylated H3/H4 (1 μM) mean” value is on record as “did not alter the acetylation of histone 3”.
